Measured values taken from paper PMC9851200, “Multiparameter phenotypic screening for endogenous TFEB and TFE3 translocation identifies novel chemical series modulating lysosome function” (Autophagy, 2022).
pEC50: −log10 of the molar value.

Key:
PRKD3 = target: T1, PRKD3 (Homo sapiens, UniProt O94806); settings: cited from earlier work
T1 sequence (O94806 1-890): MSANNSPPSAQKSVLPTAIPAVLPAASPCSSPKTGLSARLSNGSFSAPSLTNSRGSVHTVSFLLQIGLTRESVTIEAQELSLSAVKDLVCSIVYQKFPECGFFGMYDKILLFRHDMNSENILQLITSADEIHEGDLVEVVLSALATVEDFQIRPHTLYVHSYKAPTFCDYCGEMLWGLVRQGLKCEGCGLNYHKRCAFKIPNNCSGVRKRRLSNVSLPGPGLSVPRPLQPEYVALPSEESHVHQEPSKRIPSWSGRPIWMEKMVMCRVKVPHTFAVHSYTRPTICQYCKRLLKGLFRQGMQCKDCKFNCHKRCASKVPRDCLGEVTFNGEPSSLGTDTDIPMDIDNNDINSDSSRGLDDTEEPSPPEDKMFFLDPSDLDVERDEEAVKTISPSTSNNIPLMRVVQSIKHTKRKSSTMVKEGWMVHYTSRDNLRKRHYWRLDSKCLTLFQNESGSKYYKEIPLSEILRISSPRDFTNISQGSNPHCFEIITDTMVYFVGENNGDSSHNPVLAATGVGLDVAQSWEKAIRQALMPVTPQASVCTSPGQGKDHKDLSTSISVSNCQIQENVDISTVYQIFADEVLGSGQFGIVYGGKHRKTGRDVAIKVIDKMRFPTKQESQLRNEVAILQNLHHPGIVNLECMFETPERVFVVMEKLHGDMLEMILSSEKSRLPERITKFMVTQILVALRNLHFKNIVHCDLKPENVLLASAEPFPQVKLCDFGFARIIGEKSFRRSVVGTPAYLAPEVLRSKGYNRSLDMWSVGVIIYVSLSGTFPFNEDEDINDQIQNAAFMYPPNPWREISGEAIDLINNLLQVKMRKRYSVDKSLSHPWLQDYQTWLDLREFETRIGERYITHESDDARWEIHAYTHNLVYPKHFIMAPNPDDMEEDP

MTOR = MTOR (Homo sapiens, UniProt P42345); settings: cited from earlier work
CDC42BPB/MRCKB = CDC42BPB/MRCKB (Homo sapiens, UniProt Q9Y5S2); settings: cited from earlier work
CDC42BPG/DMPK2 = CDC42BPG/DMPK2 (Homo sapiens, UniProt Q6DT37); settings: cited from earlier work
CSNK1E = CSNK1E (Homo sapiens, UniProt P49674); settings: cited from earlier work
MINK1/MINK = MINK1/MINK (Homo sapiens, UniProt Q8N4C8); settings: cited from earlier work
MAPK10/JNK3 = MAPK10/JNK3 (Homo sapiens, UniProt P53779); settings: cited from earlier work
MAPK9/JNK2 = MAPK9/JNK2 (Homo sapiens, UniProt P45984); settings: cited from earlier work
STK10/LOK = STK10/LOK (Homo sapiens, UniProt O94804); settings: cited from earlier work
TFEB or TFE3 = assay: EC50 line in the head of Table S5 (cellular activity of the analogs, assay not given); type: cell-based; settings: assay not named, unit printed only in the first two cells
Experimental: Figure S5. Activity of quinazoline analogs. […] Compounds were screen at 24-h treatment time up to 5 µM concentration. Data for each compound is represented on single graphs with their structures shown. n=1 for all above assays, mean±s.d. (B) Representative western blot of TFEB levels following treatment of compounds followed by fractionation into cytoplasmic (C) and nuclear (N) compartments. Successful fractionation represented by enrichment of GAPDH in the cytoplasmic fraction and LMNA (lamin A/C) in the nuclear compartment. (C) The levels of nuclear/cytoplasmic TFEB were quantified and presented as a ratio. A paired one-way ANOVA with a Holm-Šídák's multiple comparisons test was performed relative to DMSO for comparison between each compound treatments (n=3).

TGFBR1 = target: T2, TGFBR1 (Homo sapiens, UniProt P36897); settings: cited from earlier work
T2 sequence (P36897 34-503): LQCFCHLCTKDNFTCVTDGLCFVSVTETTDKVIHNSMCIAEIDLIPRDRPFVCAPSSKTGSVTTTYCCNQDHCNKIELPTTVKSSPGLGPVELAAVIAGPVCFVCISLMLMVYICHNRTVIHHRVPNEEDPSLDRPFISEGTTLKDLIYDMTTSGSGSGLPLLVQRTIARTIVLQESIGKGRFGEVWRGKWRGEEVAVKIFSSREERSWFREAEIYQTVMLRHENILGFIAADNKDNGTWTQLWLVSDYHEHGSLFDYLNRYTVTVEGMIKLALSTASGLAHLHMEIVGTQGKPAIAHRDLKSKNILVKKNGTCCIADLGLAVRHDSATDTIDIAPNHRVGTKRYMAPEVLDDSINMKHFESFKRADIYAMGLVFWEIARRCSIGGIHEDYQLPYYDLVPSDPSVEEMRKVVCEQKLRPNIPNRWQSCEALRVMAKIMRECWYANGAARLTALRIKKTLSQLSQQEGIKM

CDC42BPG/DMPK2, sequence (Q6DT37 whole entry): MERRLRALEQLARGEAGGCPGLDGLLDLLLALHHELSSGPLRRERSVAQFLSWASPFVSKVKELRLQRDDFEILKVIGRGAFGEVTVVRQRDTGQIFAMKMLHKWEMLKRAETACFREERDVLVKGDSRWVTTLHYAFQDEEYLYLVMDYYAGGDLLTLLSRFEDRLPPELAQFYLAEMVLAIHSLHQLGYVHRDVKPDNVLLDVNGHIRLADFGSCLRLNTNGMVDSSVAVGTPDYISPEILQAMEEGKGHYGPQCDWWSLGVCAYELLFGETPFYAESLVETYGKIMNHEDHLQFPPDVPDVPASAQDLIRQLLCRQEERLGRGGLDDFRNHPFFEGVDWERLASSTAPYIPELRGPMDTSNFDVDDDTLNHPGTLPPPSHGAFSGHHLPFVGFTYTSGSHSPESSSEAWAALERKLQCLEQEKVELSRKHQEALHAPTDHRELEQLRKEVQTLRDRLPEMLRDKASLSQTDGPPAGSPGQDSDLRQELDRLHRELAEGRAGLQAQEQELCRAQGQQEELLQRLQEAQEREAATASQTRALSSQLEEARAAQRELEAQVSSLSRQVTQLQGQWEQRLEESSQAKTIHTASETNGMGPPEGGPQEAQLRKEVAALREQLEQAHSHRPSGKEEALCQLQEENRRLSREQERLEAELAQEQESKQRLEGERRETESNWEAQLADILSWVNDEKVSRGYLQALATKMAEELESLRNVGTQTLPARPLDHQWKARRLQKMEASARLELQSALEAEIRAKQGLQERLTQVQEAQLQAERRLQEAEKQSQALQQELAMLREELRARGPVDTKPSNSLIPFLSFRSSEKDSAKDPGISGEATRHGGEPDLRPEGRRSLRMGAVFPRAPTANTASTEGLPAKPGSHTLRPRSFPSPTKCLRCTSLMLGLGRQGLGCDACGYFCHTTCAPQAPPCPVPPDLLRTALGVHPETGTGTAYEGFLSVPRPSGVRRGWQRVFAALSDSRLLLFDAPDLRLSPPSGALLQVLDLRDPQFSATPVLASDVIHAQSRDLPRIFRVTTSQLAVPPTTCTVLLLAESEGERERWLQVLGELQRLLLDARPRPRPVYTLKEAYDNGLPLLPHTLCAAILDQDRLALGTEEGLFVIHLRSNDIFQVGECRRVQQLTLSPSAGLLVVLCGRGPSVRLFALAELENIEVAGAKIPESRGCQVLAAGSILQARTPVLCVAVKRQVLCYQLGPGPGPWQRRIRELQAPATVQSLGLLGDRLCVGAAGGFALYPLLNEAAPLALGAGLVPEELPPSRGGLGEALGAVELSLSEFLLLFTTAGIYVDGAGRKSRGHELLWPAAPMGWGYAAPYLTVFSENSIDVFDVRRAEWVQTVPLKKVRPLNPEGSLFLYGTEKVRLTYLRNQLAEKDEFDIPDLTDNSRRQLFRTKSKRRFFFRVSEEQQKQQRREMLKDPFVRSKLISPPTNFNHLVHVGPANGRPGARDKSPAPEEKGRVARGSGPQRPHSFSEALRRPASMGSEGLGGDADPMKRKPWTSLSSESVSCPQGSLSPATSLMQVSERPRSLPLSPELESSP
MAPK10/JNK3, sequence (P53779 whole entry): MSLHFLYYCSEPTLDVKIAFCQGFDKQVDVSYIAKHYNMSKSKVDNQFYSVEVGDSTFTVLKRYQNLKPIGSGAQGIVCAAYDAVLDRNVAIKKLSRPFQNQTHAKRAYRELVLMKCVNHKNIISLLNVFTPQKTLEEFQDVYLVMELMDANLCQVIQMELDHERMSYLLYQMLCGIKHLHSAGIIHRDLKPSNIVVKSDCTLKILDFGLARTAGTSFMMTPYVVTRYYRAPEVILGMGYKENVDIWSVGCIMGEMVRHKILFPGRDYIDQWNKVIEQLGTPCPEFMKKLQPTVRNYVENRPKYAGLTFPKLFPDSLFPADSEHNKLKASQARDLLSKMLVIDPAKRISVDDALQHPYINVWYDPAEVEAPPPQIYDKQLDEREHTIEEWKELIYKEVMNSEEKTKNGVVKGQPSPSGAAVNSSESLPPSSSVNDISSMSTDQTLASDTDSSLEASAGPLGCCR
CDC42BPB/MRCKB, sequence (Q9Y5S2 whole entry): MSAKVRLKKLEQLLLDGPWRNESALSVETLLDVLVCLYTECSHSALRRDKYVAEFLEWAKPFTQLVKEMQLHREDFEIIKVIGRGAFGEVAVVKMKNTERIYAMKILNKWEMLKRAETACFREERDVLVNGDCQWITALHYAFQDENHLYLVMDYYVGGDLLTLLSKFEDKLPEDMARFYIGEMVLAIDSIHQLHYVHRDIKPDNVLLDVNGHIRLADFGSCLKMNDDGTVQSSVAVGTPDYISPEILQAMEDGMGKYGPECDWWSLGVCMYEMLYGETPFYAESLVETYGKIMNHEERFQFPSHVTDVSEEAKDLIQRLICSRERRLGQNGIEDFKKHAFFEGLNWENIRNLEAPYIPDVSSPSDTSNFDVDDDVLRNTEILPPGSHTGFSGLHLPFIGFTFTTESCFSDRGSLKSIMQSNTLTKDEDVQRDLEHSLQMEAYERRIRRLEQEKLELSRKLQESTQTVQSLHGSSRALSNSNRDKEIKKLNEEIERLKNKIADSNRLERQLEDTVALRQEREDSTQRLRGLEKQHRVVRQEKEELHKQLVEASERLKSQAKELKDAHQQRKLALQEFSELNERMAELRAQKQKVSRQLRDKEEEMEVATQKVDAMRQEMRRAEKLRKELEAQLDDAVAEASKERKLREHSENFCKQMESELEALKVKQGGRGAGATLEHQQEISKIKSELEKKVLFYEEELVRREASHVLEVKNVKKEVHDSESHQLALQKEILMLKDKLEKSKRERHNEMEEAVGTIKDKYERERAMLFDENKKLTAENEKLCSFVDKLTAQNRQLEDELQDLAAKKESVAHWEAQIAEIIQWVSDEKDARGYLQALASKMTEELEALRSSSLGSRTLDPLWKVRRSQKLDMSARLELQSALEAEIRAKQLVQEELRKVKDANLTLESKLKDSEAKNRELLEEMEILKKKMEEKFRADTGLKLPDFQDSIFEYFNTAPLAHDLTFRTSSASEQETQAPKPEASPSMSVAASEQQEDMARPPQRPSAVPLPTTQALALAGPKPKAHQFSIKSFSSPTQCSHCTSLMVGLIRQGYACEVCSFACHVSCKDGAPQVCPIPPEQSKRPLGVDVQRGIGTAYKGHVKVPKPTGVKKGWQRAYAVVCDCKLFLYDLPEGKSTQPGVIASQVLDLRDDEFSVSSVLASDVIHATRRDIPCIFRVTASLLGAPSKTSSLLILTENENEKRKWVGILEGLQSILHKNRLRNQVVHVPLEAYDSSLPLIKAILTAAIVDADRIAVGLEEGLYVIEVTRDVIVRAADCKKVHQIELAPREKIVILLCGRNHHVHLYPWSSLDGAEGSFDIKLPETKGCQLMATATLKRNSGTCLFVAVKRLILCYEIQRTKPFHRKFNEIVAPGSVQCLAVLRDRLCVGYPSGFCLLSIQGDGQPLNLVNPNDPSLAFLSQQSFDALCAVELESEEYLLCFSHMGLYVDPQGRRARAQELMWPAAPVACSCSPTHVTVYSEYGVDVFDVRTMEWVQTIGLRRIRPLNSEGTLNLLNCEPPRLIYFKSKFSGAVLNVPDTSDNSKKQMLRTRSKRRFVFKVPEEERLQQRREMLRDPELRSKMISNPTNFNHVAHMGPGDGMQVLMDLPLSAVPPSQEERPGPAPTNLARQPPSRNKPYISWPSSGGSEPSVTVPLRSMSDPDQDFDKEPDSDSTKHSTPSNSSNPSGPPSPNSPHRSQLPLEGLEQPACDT
MAPK9/JNK2, sequence (P45984 whole entry): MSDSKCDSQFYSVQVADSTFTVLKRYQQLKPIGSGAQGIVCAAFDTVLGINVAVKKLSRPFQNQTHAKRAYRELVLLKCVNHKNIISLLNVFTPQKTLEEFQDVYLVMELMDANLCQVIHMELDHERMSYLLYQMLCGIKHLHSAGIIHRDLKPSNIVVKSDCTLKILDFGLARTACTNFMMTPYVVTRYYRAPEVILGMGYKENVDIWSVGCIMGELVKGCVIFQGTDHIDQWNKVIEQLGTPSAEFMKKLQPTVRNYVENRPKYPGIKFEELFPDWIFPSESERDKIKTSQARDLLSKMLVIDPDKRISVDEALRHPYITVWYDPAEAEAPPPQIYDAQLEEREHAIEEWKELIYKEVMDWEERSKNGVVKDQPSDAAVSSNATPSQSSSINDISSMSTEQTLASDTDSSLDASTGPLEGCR
CSNK1E, sequence (P49674 whole entry): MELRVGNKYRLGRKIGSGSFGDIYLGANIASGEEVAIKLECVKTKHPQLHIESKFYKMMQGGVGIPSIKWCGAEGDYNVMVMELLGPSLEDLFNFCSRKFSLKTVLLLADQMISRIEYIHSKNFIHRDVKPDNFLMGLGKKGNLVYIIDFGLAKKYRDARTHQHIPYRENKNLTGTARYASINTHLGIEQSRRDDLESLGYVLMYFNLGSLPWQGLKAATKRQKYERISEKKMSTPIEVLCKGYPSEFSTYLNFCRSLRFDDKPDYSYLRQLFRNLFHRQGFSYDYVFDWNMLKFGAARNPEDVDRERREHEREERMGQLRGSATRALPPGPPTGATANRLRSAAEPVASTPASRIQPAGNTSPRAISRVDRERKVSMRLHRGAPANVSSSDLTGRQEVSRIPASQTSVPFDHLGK

**Q.** For Cc1cccc(-c2cc(Nc3ccncc3)c3ccccc3n2)n1 [GSK223675], which “KINOMEscan binding PRKD3” value (PRKD3) is on record?
**A.** 100%

**Q.** What about the “KINOMEscan binding MTOR” value (MTOR) of the same compound?
**A.** 7%

**Q.** What about the “KINOMEscan binding CDC42BPB/MRCKB” value (CDC42BPB/MRCKB) of the same compound?
**A.** 0%

**Q.** And the “KINOMEscan binding CDC42BPG/DMPK2” value (CDC42BPG/DMPK2)?
**A.** 7%

**Q.** And the “KINOMEscan binding CSNK1E” value (CSNK1E)?
**A.** 50%

**Q.** What does the source list for COc1ccc2nc(-c3cccc(C)n3)nc(Nc3ccncc3)c2c1 [GSK204919]?
**A.** KINOMEscan binding MINK1/MINK (MINK1/MINK): 30%; KINOMEscan binding PRKD3 (PRKD3): 100%; KINOMEscan binding MAPK10/JNK3 (MAPK10/JNK3): 36%; KINOMEscan binding MAPK9/JNK2 (MAPK9/JNK2): 60%; KINOMEscan binding MTOR (MTOR): 43%; KINOMEscan binding CDC42BPB/MRCKB (CDC42BPB/MRCKB): 94.1%; KINOMEscan binding CDC42BPG/DMPK2 (CDC42BPG/DMPK2): 91.1%; KINOMEscan binding STK10/LOK (STK10/LOK): 0%; KINOMEscan binding CSNK1E (CSNK1E): 64%

**Q.** With Cc1cccc(-c2nc(Nc3ccc4ncsc4c3)c3ccccc3n2)n1 [NK140] as the compound, how does the pEC50 (TFEB or TFE3) read?
**A.** 6.19

**Q.** Which results are given for Cc1ccc(-c2nc(Nc3ccncc3)c3ccccc3n2)s1 [GSK189015]?
**A.** KINOMEscan binding MINK1/MINK (MINK1/MINK): 2%; KINOMEscan binding PRKD3 (PRKD3): 22%; KINOMEscan binding MAPK10/JNK3 (MAPK10/JNK3): 14%; KINOMEscan binding MAPK9/JNK2 (MAPK9/JNK2): 19%; KINOMEscan binding MTOR (MTOR): 10%; KINOMEscan binding CDC42BPB/MRCKB (CDC42BPB/MRCKB): 21%; KINOMEscan binding TGFBR1 (TGFBR1): 6%; KINOMEscan binding CDC42BPG/DMPK2 (CDC42BPG/DMPK2): 13%; KINOMEscan binding STK10/LOK (STK10/LOK): 1%; KINOMEscan binding CSNK1E (CSNK1E): 22%

**Q.** Which results are given for Cc1cccc(-c2nc(Nc3ccc4ncsc4c3)c3ccccc3n2)n1 [GW867588]?
**A.** KINOMEscan binding MINK1/MINK (MINK1/MINK): 0%; KINOMEscan binding PRKD3 (PRKD3): 66%; KINOMEscan binding MAPK10/JNK3 (MAPK10/JNK3): 0%; KINOMEscan binding MAPK9/JNK2 (MAPK9/JNK2): 8%; KINOMEscan binding MTOR (MTOR): 0%; KINOMEscan binding CDC42BPB/MRCKB (CDC42BPB/MRCKB): 33%; KINOMEscan binding TGFBR1 (TGFBR1): 55%; KINOMEscan binding CDC42BPG/DMPK2 (CDC42BPG/DMPK2): 9%; KINOMEscan binding STK10/LOK (STK10/LOK): 27%; KINOMEscan binding CSNK1E (CSNK1E): 6%

**Q.** With Cc1cccc(-c2nc(Nc3ccncc3)c3ccccc3n2)n1 [GW855857] as the compound, how does the “KINOMEscan binding PRKD3” value (PRKD3) read?
**A.** 69%

**Q.** What about the “KINOMEscan binding MTOR” value (MTOR) of the same compound?
**A.** 50%

**Q.** What about the “KINOMEscan binding CDC42BPB/MRCKB” value (CDC42BPB/MRCKB) of the same compound?
**A.** 63%

**Q.** What about the “KINOMEscan binding CDC42BPG/DMPK2” value (CDC42BPG/DMPK2) of the same compound?
**A.** 76%

**Q.** And the “KINOMEscan binding CSNK1E” value (CSNK1E)?
**A.** 77%

**Q.** Which results are given for Cc1cc(Nc2nc(-c3cccc(C)n3)nc3ccccc23)ccn1 [GW872411]?
**A.** KINOMEscan binding MINK1/MINK (MINK1/MINK): 1%; KINOMEscan binding PRKD3 (PRKD3): 76%; KINOMEscan binding MAPK10/JNK3 (MAPK10/JNK3): 0%; KINOMEscan binding MAPK9/JNK2 (MAPK9/JNK2): 14%; KINOMEscan binding MTOR (MTOR): 73%; KINOMEscan binding CDC42BPB/MRCKB (CDC42BPB/MRCKB): 0%; KINOMEscan binding TGFBR1 (TGFBR1): 83%; KINOMEscan binding CDC42BPG/DMPK2 (CDC42BPG/DMPK2): 2%; KINOMEscan binding STK10/LOK (STK10/LOK): 0%; KINOMEscan binding CSNK1E (CSNK1E): 31%

**Q.** Which “KINOMEscan binding PRKD3” value (PRKD3) does the source give for Cc1cccc(-c2nc(Nc3ccncc3)c3sccc3n2)n1 [GW869641] here?
**A.** 90.7%

**Q.** And the “KINOMEscan binding MTOR” value (MTOR)?
**A.** 75%

**Q.** What about the “KINOMEscan binding CDC42BPB/MRCKB” value (CDC42BPB/MRCKB) of the same compound?
**A.** 98.5%

**Q.** What about the “KINOMEscan binding CDC42BPG/DMPK2” value (CDC42BPG/DMPK2) of the same compound?
**A.** 98.5%

**Q.** And the “KINOMEscan binding CSNK1E” value (CSNK1E)?
**A.** 94.9%
